Values joined by “and” are separate entries in the source; they are usually repeats but may differ in a detail not shown here. Equal values may be shown once. Read-outs that look alike come from different tables or passages of the source.
Tests used:
[1] = system: NR3C1 (GR); conditions: (lit.); ref Supplementary Table 1; read-out: Potency [nM] EC50, NR3C1 (GR); cited from earlier work
[2] = system: NF-κB activity in HEK293 NF-κB reporter cells; assay: NF-kB activity assay (GFP reporter, ionomycin/PMA); assay type: cell-based; conditions: n=3
In short: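 Reporter readout: GFP-expressing cells normalized to confluence, imaged every 90 min across 24 h after ionomycin (100 ng/mL)/PMA (10 ng/mL) stimulation of HEK293 cells pre-treated 4 h with compound (0.1% DMSO); triplicate independent experiments.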

[3] = system: HEK293T cells; assay: Cytotoxicity: apoptosis induction (caspase-3/7 DEVD fluorogenic DNA dye); conditions: for Apoptosis induction [AI]: 1 µM, single replicates
[4] = target: T1, CSNK1D (Homo sapiens, UniProt P48730); assay: Liability panel screening by DSF: CSNK1D; assay type: binding; conditions: read-out: Mean ΔTM CSNK1D
T1 construct: made in house
In short: (§1)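 Recombinant protein at 2 µM in 10 mM HEPES pH 7.5 with 500 mM NaCl was mixed with SYPRO Orange (1:1000) and heated at 3 °C/min up to 85 °C. Tm was taken as the Boltzmann-fit inflection point. Shifts are ∆Tm in K from technical duplicates.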

[5] = system: HEK293T cells; assay: Cytotoxicity: necrosis induction (red fluorescent dye for permeable plasma membranes); assay type: cell-based; conditions: 1 µM, 24 h, necrotic cell count normalized to 0.1% DMSO, single replicates;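 further: compounds applied in DMEM high glucose with 0.1% FCS and 0.1% DMSO, necrotic HEK293T cells counted by red staining of cells whose plasma membranes had become permeable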
[6] = system: NR3C2 (MR); conditions: (lit.); ref Supplementary Table 1; read-out: Potency [nM] EC50, NR3C2 (MR); cited from earlier work
[7] = target: T2, ABL1 (Homo sapiens, UniProt P00519); assay: Liability panel screening by DSF: ABL1; assay type: binding; conditions: read-out: Mean ΔTM ABL1
T2 construct: made in house
In short: as §1

[8] = target: T3, CDK2 (Homo sapiens, UniProt P24941); assay: Liability panel screening by DSF: CDK2; assay type: binding; conditions: read-out: Mean ΔTM CDK2
T3 construct: made in house
In short: as §1

[9] = target: T4, TRIM24 (Homo sapiens, UniProt O15164); assay: Liability panel screening by DSF: TRIM24; assay type: binding; conditions: read-out: Mean ΔTM TRIM24
T4 construct: This panel comprised ten highly ligandable kinases and bromodomains; made in house
T4 sequence (O15164 899-1004 limits assumed): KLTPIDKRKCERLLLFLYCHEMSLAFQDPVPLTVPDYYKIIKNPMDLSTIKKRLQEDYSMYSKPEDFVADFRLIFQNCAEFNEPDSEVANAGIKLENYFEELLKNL
In short: as §1

[10] = target: T5, FGFR3 (Homo sapiens, UniProt P22607); assay: Liability panel screening by DSF: FGFR3; assay type: binding; conditions: read-out: Mean ΔTM FGFR3
T5 construct: made in house
In short: as §1

[11] = target: T6, MAPK1 (Homo sapiens, UniProt P28482); assay: Liability panel screening by DSF: MAPK1; assay type: binding; conditions: read-out: Mean ΔTM MAPK1
T6 construct: made in house
In short: as §1

[12] = target: T7, BRPF1 (Homo sapiens, UniProt P55201); assay: Liability panel screening by DSF: BRPF1; assay type: binding; conditions: read-out: Mean ΔTM BRPF1
T7 construct: This panel comprised ten highly ligandable kinases and bromodomains; made in house
T7 sequence (P55201 628-732 limits assumed): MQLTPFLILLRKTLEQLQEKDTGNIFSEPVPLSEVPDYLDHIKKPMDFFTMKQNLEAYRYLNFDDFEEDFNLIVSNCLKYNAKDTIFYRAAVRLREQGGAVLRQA
In short: as §1

[13] = target: T8, GSK3B (Homo sapiens, UniProt P49841); assay: Liability panel screening by DSF: GSK3B; assay type: binding; conditions: read-out: Mean ΔTM GSK3B
T8 construct: made in house

[14] = system: NR3C3 (PR); conditions: (lit.); ref Supplementary Table 1; read-out: Potency [nM] EC50, NR3C3 (PR); cited from earlier work
[15] = system: ATF6 activity in Hela ATF6 reporter cells; assay: Endoplasmic reticulum stress assay (ATF6 Renilla luciferase reporter, tunicamycin); assay type: cell-based; conditions: Homo sapiens, HeLa, 1 µM, single replicates n=1 to n=5; read-out: ER stress [rel. ATF6 activity]
In short: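 ER stress was induced by 100 ng/mL tunicamycin added 4 h after compound (0.1% DMSO) to HeLa ATF6 reporter cells. After 18 h more, Renilla luciferase signal was read and expressed relative to DMSO control, n=5 biological replicates.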

[16] = target: T9, BRD4 (Homo sapiens, UniProt O60885); assay: Liability panel screening by DSF: BRD4; assay type: binding; conditions: read-out: Mean ΔTM BRD4
T9 construct: This panel comprised ten highly ligandable kinases and bromodomains; made in house
In short: as §1

[17] = system: HEK293T cells; assay: Cytotoxicity: metabolic activity (WST-8 / CCK-8 assay); conditions: 1 µM, single replicates
[18] = target: T10, AURKA (Homo sapiens, UniProt O14965); assay: Liability panel screening by DSF: AURKA; assay type: binding; conditions: read-out: Mean ΔTM AURKA
T10 construct: made in house
T10 sequence (O14965 1-403): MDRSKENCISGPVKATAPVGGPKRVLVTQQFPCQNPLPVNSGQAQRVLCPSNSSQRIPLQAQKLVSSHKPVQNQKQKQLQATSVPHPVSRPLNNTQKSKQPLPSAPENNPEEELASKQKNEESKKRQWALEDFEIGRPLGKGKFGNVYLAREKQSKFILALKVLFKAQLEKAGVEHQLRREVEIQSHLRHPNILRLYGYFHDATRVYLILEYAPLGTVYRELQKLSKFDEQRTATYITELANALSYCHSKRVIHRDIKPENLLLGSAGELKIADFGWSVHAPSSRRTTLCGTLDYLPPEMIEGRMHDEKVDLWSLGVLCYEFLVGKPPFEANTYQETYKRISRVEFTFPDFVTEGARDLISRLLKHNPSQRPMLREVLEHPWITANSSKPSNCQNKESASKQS
In short: as §1

[19] = system: NR3C4 (AR); conditions: read-out: Potency [nM] EC50, NR3C4 (AR); cited from earlier work
[20] = system: HEK293T cells; assay: Cytotoxicity: growth-rate (change in confluence over 24 h); conditions: 1 µM, normalized to 0.1% DMSO control, single replicates (n=1...)
[21] = system: Gal4-VP16; assay type: cell-based; conditions: 1 µM
[22] = cited from earlier work
[23] = system: NR3A2 (ERβ); conditions: (lit.); ref Supplementary Table 1; read-out: Potency [nM] EC50, NR3A2 (ERβ); cited from earlier work
[24] = system: HEK293T cells; assay: Evaluation of cytotoxicity (overall: growth-rate, metabolic activity, apoptosis, necrosis); assay type: cell-based; conditions: HEK293T, 24 h; budesonide (3 µM), others at tested concentration
Description: The selection of 40 CG candidates was acquired from commercial vendors (purity ≥95%) and applied to initial toxicity screening. Cytotoxicity was determined in HEK293T cells considering growth-rate, metabolic activity as well as apoptosis and/or necrosis induction to evaluate suitability of the compounds for CG application in cellular settings (Fig. 3a–d, Supplementary Fig. 1, Supplementary Data 1). The candidates were generally well tolerated at concentrations >>EC50/IC50 that we recommend for CG application with only four compounds showing mild toxic effects. […] In terms of cytotoxicity, all candidates thus appeared suitable for inclusion in an NR3 CG set.

[25] = system: NR3A1 (ERα); conditions: (lit.); ref Supplementary Table 1; read-out: Potency [nM] EC50, NR3A1 (ERα); cited from earlier work

T5 sequence (P22607 23-806, species assumed): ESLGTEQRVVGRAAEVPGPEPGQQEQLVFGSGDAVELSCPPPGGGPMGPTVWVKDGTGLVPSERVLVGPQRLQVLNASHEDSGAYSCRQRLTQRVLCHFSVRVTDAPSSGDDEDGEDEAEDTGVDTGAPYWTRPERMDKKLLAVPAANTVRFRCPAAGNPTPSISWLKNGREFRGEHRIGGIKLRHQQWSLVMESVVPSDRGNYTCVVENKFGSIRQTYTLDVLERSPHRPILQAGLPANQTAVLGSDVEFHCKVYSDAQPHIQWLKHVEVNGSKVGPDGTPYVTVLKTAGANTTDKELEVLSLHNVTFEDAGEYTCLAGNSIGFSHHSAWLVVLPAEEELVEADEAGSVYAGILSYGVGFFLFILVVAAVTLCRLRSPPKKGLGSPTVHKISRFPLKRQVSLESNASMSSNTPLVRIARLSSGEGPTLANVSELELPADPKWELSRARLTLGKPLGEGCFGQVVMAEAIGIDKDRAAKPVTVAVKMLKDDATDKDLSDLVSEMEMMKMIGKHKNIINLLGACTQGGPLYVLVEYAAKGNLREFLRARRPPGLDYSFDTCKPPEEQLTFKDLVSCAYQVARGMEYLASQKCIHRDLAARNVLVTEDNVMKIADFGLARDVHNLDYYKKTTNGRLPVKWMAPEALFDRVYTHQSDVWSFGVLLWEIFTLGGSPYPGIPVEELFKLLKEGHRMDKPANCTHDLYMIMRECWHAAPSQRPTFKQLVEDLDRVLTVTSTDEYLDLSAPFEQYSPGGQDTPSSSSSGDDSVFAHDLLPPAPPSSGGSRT
T8 sequence (P49841 whole entry, species assumed): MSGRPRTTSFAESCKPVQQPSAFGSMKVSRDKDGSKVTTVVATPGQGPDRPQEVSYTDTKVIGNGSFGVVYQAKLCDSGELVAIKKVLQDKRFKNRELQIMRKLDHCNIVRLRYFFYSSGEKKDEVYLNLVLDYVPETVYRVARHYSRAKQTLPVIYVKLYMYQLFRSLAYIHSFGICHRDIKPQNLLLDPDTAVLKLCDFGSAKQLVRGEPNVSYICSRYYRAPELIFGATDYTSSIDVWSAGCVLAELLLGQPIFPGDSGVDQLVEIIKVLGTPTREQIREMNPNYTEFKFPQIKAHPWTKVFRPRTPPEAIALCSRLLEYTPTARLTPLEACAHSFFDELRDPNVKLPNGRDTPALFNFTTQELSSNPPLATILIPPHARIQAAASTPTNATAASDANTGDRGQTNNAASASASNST
T2 sequence (P00519 whole entry, species assumed): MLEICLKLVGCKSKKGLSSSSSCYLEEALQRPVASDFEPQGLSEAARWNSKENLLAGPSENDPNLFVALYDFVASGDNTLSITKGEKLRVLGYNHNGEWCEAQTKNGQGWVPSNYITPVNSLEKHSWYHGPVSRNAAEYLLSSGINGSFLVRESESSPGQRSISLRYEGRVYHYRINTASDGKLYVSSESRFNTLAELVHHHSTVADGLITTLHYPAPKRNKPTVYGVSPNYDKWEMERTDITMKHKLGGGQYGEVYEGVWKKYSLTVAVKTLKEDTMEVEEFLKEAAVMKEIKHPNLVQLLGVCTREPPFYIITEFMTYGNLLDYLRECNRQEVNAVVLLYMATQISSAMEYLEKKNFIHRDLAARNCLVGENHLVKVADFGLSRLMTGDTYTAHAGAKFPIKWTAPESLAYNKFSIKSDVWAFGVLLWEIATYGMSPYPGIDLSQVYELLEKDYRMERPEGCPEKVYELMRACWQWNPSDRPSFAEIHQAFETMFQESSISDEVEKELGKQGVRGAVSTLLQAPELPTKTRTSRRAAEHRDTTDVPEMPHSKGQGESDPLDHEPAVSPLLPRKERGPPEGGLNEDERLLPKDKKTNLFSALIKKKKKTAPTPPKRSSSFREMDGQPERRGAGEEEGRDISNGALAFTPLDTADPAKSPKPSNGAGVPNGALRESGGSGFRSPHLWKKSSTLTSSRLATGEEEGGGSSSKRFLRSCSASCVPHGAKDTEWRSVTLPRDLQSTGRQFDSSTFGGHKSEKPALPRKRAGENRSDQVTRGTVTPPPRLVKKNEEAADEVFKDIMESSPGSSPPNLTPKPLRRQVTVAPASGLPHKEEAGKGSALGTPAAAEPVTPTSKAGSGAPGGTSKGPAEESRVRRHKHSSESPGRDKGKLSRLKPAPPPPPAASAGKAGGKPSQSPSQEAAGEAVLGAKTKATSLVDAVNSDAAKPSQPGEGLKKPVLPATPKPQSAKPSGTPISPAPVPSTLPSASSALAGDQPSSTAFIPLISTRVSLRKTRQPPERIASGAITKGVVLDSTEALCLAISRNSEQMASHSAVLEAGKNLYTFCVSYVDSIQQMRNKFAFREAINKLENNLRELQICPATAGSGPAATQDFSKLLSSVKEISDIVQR
T1 sequence (P48730 whole entry, species assumed): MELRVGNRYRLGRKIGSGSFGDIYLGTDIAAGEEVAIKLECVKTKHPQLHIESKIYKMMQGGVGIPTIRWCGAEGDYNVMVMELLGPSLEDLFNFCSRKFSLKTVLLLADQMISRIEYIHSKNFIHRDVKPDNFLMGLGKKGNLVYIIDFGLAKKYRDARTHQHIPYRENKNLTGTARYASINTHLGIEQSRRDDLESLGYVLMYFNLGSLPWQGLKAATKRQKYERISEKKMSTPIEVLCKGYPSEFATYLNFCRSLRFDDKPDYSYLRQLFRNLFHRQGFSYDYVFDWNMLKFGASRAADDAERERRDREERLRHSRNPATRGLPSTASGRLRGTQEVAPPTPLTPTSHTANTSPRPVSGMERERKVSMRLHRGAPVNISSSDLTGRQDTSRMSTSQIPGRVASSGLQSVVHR
T6 sequence (P28482 whole entry, species assumed): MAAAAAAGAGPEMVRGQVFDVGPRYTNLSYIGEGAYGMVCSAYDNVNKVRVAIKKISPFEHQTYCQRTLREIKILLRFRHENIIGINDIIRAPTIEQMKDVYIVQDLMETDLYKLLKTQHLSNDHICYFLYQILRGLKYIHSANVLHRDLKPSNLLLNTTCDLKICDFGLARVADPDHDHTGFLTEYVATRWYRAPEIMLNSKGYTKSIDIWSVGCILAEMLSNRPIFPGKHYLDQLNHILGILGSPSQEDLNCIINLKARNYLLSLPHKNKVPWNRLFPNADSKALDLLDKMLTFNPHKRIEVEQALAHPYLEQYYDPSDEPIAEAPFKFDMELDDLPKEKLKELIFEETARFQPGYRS

SMILES: C[C@]1(O)CC[C@H]2[C@@H]3CCC4=CC(=O)CCC4=C3C=C[C@@]21C [Methyltrienolone]
- EC50 [1]: 10 ± 4 nM
- Mean NFκB response ([2]; 1 µM, 1,5 h): 3531.33 GFP+-cells/confluence ∙ 1000
- Mean NFκB response ([2]; 1 µM, 4,5 h): 3781.33 GFP+-cells/confluence ∙ 1000
- Mean NFκB response ([2]; 1 µM, 7,5 h): 7660.67 GFP+-cells/confluence ∙ 1000
- Mean NFκB response ([2]; 1 µM, 10,5 h): 17176.00 GFP+-cells/confluence ∙ 1000
- Mean NFκB response ([2]; 1 µM, 13,5 h): 24525.33 GFP+-cells/confluence ∙ 1000
- Mean NFκB response ([2]; 1 µM, 16,6 h): 30685.33 GFP+-cells/confluence ∙ 1000
- Mean NFκB response ([2]; 1 µM, 19,5 h): 34386.67 GFP+-cells/confluence ∙ 1000
- Mean NFκB response ([2]; 1 µM, 22,5 h): 37650.00 GFP+-cells/confluence ∙ 1000
- Mean NFκB response ([2]; 1 µM, 3 h): 3552.67 GFP+-cells/confluence ∙ 1000
- Mean NFκB response ([2]; 1 µM, 6 h): 4781.67 GFP+-cells/confluence ∙ 1000
- Mean NFκB response ([2]; 1 µM, 9 h): 12656.33 GFP+-cells/confluence ∙ 1000
- Mean NFκB response ([2]; 1 µM, 12 h): 21183.67 GFP+-cells/confluence ∙ 1000
- Mean NFκB response ([2]; 1 µM, 15 h): 28114.67 GFP+-cells/confluence ∙ 1000
- Mean NFκB response ([2]; 1 µM, 18 h): 32970.33 GFP+-cells/confluence ∙ 1000
- Mean NFκB response ([2]; 1 µM, 21 h): 36266.67 GFP+-cells/confluence ∙ 1000
- Mean NFκB response ([2]; 1 µM, 24 h): 38486.67 GFP+-cells/confluence ∙ 1000
- Apoptosis induction [AI] ([3]; HEK293T, 24 h, apoptotic cell count normalized to 0.1% DMSO): 0.87 and 1.36 and 0.90 and 1.12 and 0.53 and 0.75
- ΔTm at 20 µM [4]: -0.05 °C
- Necrosis induction [NI] [5]: 0.85 and 1.01 and 0.97 and 1.35
- EC50 [6]: 0.5 ± 0.1 nM
- ΔTm at 20 µM [7]: 0.42 °C
- ΔTm at 20 µM [8]: -0.06 °C
- ΔTm at 20 µM [9]: -0.03 °C
- ΔTm at 20 µM [10]: 0.15 °C
- ΔTm at 20 µM [11]: -0.02 °C
- ΔTm at 20 µM [12]: -1.21 °C
- ΔTm at 20 µM [13]: -0.24 °C
- EC50 [14]: 0.5 ± 0.3 nM
- activity at 1 µM [15]: 100%
- ΔTm at 20 µM [16]: -0.94 °C
- Metabolic activity [MA] ([17]; HEK293T, 24 h, WST-8, normalized to 0.1% DMSO): 0.98 and 1.02 and 0.97 (2×) and 1.07 and 1.05 and 1.13 and 1.10
- ΔTm at 20 µM [18]: 0.08 °C
- EC50 [19]: 0.01 ± 0.01 nM
- Growth rate [GR] [20]: 0.54 and 2.52 and 1.01 and 1.07 and 0.85 and 1.02 and 1.00 and 1.19 and 1.25 and 1.79

SMILES: C#C[C@]1(O)CC[C@H]2[C@@H]3CCc4cc(O)ccc4[C@H]3CC[C@@]21C [Ethinylestradiol]
- VP16 control [fold reporter gene activity] (n=3), n=1 ([21]; replicate n=1): 1.03 fold
- VP16 control [fold reporter gene activity] (n=3), n=2 ([21]; replicate n=2): 0.89 fold
- VP16 control [fold reporter gene activity] (n=3), n=3 ([21]; replicate n=3): 0.92 fold
- Apoptosis induction [AI] ([3]; DMSO 0.1% = 1.00): 1.56 and 1.81
- apoptosis induction ([3]; HEK293T, 24 h, budesonide (3 µM), others at tested concentration): slight apoptosis induction
- ΔTm at 20 µM ([4]; DSF, 20 µM, n=2): 0.07 °C
- NR off-target at recom. conc. ([22]; known NR off-target at the recommended concentration, ref Supplementary Table 1 (superscript references)): NR1I3
- Other off-target at recom. conc. ([22]; known off-target outside the NR family at the recommended concentration, ref Supplementary Table 1 (superscript references)): AOX1 and CYP2B6 and SULT1A1 and OCT2
- Reason for exclusion: number of annotated off-targets ([22]; other targets with annotated bioactivities at ≤10 µM in previously published dataset): > 5 off-targets
- EC50 [23]: 18 ± 2 nM
- effects on growth-rate, metabolic activity and necrosis [24]: without relevant effects
- ΔTm at 20 µM ([7]; DSF, 20 µM, n=2): -0.29 °C
- ΔTm at 20 µM ([8]; DSF, 20 µM, n=2): -0.25 °C
- ΔTm at 20 µM ([9]; DSF, 20 µM, n=2): -1.12 °C
- ΔTm at 20 µM ([10]; DSF, 20 µM, n=2): -0.28 °C
- ΔTm at 20 µM ([11]; DSF, 20 µM, n=2): 0.35 °C
- ΔTm at 20 µM ([12]; DSF, 20 µM, n=2): 1.32 °C
- ΔTm at 20 µM ([13]; DSF, 20 µM, n=2): 0.23 °C
- EC50 [25]: 8 ± 1 nM
- ΔTm at 20 µM ([16]; DSF, 20 µM, n=2): 0.13 °C
- Metabolic activity [MA] ([17]; DMSO 0.1% = 1.00): 1.06 (2×) and 0.82 and 1.07 and 1.00 and 0.95
- ΔTm at 20 µM ([18]; DSF, 20 µM, n=2): 0.11 °C
- Growth rate [GR] [20]: 1.36 and 0.84 and 1.03 and 0.88 and 0.94 and 0.78
